Entries after “also recorded” stand apart in the source; their conditions may differ. Counter-ions that a name gives are not always drawn.
Legend:
Type in all cases: in vivo, mouse
[1] = system: T1R3 knock-out, B6 wild-type and 129 wild-type mice; test: 48-hour two-bottle preference test (tastant versus water); conditions: for Behavioral (preference) response of T1R3 knock-out mice compared with B6 wild-type mice: 48 h two-bottle test, concentrations eliciting preference in B6 wild-type; for Preference responses compared among B6, 129 and T1R3 knock-out mice: B6 (taster), 129 (nontaster), T1R3 knock-out (null); for Response of T1R3 knock-out mice compared with 129 mice: two-bottle preference
Protocol: Behavioral tests were conducted to examine the responses of T1R3 knock-out mice to tastants representing five taste qualities (sweet, bitter, salty, sour and umami). Mice of both sexes aged between 2 and 12 months were used. Age- and gender-matched mice were used in the three genotype groups, and littermates were used in the knock-out and B6 wild-type control groups. The two-bottle preference test consisted of giving the mice two bottles, one containing deionized water and the other a tastant solution, for 48 hours. The bottle positions were swapped after 24 hours to eliminate position effects. The ratio of tastant to total liquid consumed was measured and compared between groups using known methods (see, e.g., Wong, G. T. et al., Nature, 381: 796 (1996).
The tastants were presented at two-fold or three-fold ascending concentrations. The mice were allowed a 7-day recovery period with deionized water between tastants. The order of tastants for Group 1 was sucrose, quinine, SC45647, MSG, acesulfame K, sucralose and glucose. The order of tastants for Group 2 was NaCl, HCl and maltose. All tastants were of the highest purity available. MSG solutions also contained 10 micromolar amiloride to block the salty taste of the Na+. Tastant concentrations are listed below in order of presentation:
(§1) The general linear model for repeated measurements analysis was used to compare the responses of T1R3 knock-out, B6 wild-type and 129 wild-type mice, with tastant concentration as dependant variables and genotype as fixed factor. For each compound, the responses from all concentrations were analyzed together, the response from each concentration being treated as a single value for the multiple measurement analysis. For behavioral tests, the F value is given for comparison of all genotypes. When a significant difference was found, the Tukey's test was used to determine which means differed. P values from the Tukey's test are given for T1R3 knock-out vs. B6 and for T1R3 knock-out vs. 129. When this analysis gave a borderline p value (0.05<p<0.06) each concentration was analyzed individually using the general linear model univariate analysis. For CT and GL nerve responses to glucose, maltose and sucralose the general linear model univariate analysis was used because only one concentration was tested for each of these tastants.

[2] = system: chorda tympani (CT) nerve of T1R3 knock-out and B6 wild-type mice; test: Whole-nerve recording from the chorda tympani (CT) nerve on lingual application of tastants; conditions: integrated response normalized to 100 mM NH4Cl
Protocol: as §1
(§2) To examine the contributions of the gustatory nerves to the behavioral responses, we recorded from the chorda tympani (CT) branch of the facial nerve and the glossopharyngeal (GL) nerve of T1R3 knock-out and B6 wild-type mice. Recordings of electrical impulses from the chorda tympani (CT) and the glossopharyngeal (GL) nerves were performed according to known methods (Kawai, K. et al., Proc. Nat'l. Acad. Sci. USA, 97: 11044 (2000)). Male and female mice were used. Tastants were applied at a regular flow rate to the tongue for 30 seconds (CT) or 60 seconds (GL). Tastant concentrations are listed below:
(§3) At 5, 10, 15, 20 and 25 seconds (for the CT) and 5, 10, 20, 30 and 40 seconds (for the GL) after stimulus onset the integrated response magnitudes to each stimulus were measured in the chart records as magnitudes of pen deflection (mm) from baseline (before stimulation) and averaged. These averages were normalized to the response to NH4Cl and analyzed with the General Linear Model Multiple Measures of SPSS with tastant concentrations provided to subjects as “variables” and genotype differences between subjects as “factor”. The single concentrations (see FIG. 14) used for the sugars, sorbitol and saccharin were chosen to be in the midrange of CT responses of C57BL6 mice based on previous studies (Ninomiya, Y. and Imoto, T., Am J. Physiol., 268: R1019 (1995); Ninomiya, Y. et al., Am J. Physiol., 269: R930 (1995); Inoue, M. et al., Chem. Senses, 26: 915 (2001)).

[3] = system: glossopharyngeal (GL) nerve of T1R3 knock-out and B6 wild-type mice; test: Whole-nerve recording from the glossopharyngeal (GL) nerve on lingual application of tastants; conditions: for GL responses of T1R3 knock-out mice compared with B6 wild-type mice: integrated response normalized to 100 mM NH4Cl
Protocol: as §1, §2, §3

N[C@@H](CCC(=O)O)C(=O)[O-].[Na+] [MSG, monosodium glutamate]
Behavioral (preference) response of T1R3 knock-out mice compared with B6 wild-type mice [1]: moderately diminished
Behavioral (preference) response of T1R3 knock-out mice compared with B6 wild-type mice ([1]; listed as monosodium glutamate (MSG)): reduced response
Preference of T1R3 knock-out mice compared with B6 wild-type mice ([1]; concentrations between 30 and 300 mM): reduced, but not abolished
CT responses of T1R3 knock-out mice compared with B6 wild-type mice [2]: slightly diminished; also recorded: diminished only at the highest concentration tested
GL responses of T1R3 knock-out mice compared with B6 wild-type mice [3]: no differences

C[C@H](NC(=NCC(=O)O)Nc1ccc(C#N)cc1)c1ccccc1 [SC45647]
Behavioral (preference) response of T1R3 knock-out mice compared with B6 wild-type mice [1]: indifference
Preference responses compared among B6, 129 and T1R3 knock-out mice [1]: strongest in B6 mice, weakest in T1R3 knock-out mice, and intermediate in 129 mice
CT responses of T1R3 knock-out mice compared with B6 wild-type mice [2]: markedly diminished; also recorded: near-zero
GL nerve responses of B6 wild-type mice compared with their CT responses [3]: much lower
GL responses of T1R3 knock-out mice compared with B6 wild-type mice [3]: Significant differences; also recorded: reduced

O=C[C@H](O)[C@@H](O)[C@H](O)[C@H](O)CO [Glucose, glucose]
Behavioral (preference) response of T1R3 knock-out mice compared with B6 wild-type mice [1]: reduced response; also recorded: slightly reduced
Response of T1R3 knock-out mice compared with 129 mice [1]: did not differ
CT responses of T1R3 knock-out mice compared with B6 wild-type mice [2]: not significantly diminished

OC[C@H]1O[C@@](CO)(O[C@H]2O[C@H](CO)[C@@H](O)[C@H](O)[C@H]2O)[C@@H](O)[C@@H]1O [Sucrose, sucrose]
Behavioral (preference) response of T1R3 knock-out mice compared with B6 wild-type mice [1]: markedly diminished; also recorded: indifference
Behavior of T1R3 knock-out mice at high tastant concentration ([1]; concentrations 5- to 10-fold those needed to elicit a strong preference in B6 wild-type mice): preferred
Response of T1R3 knock-out mice compared with 129 mice [1]: weaker
CT responses of T1R3 knock-out mice compared with B6 wild-type mice [2]: markedly diminished; also recorded: moderately or markedly diminished
GL nerve responses of B6 wild-type mice compared with their CT responses [3]: much lower
GL responses of T1R3 knock-out mice compared with B6 wild-type mice [3]: Significant differences; also recorded: reduced

N[C@H](Cc1c[nH]c2ccccc12)C(=O)O [D-tryptophan]
CT responses of T1R3 knock-out mice compared with B6 wild-type mice [2]: nearly abolished; also recorded: near-zero

Cl [HCl]
GL responses of T1R3 knock-out mice compared with B6 wild-type mice [3]: unchanged

OC[C@H]1O[C@H](O[C@]2(CCl)O[C@H](CCl)[C@@H](O)[C@@H]2O)[C@H](O)[C@@H](O)[C@H]1Cl [Sucralose, sucralose]
Behavioral (preference) response of T1R3 knock-out mice compared with B6 wild-type mice [1]: indifference
Preference responses compared among B6, 129 and T1R3 knock-out mice [1]: strongest in B6 mice, weakest in T1R3 knock-out mice, and intermediate in 129 mice
CT responses of T1R3 knock-out mice compared with B6 wild-type mice [2]: near-zero

O=C1NS(=O)(=O)c2ccccc21 [saccharin]
CT responses of T1R3 knock-out mice compared with B6 wild-type mice [2]: near-zero

OC[C@H]1O[C@H](O[C@H]2[C@H](O)[C@@H](O)C(O)O[C@@H]2CO)[C@H](O)[C@@H](O)[C@@H]1O (mixture of isomers) [Maltose, maltose]
Behavioral (preference) response of T1R3 knock-out mice compared with B6 wild-type mice [1]: no difference
Response of T1R3 knock-out mice compared with 129 mice [1]: did not differ
CT responses of T1R3 knock-out mice compared with B6 wild-type mice [2]: significant differences; also recorded: diminished; also recorded: moderately or markedly diminished

CC1=CC(=O)[N-]S(=O)(=O)O1.[K+] [AceK, acesulfame K]
Behavioral (preference) response of T1R3 knock-out mice compared with B6 wild-type mice [1]: indifference
Preference responses compared among B6, 129 and T1R3 knock-out mice [1]: strongest in B6 mice, weakest in T1R3 knock-out mice, and intermediate in 129 mice
CT responses of T1R3 knock-out mice compared with B6 wild-type mice [2]: markedly diminished; also recorded: near-zero
GL nerve responses of B6 wild-type mice compared with their CT responses [3]: lower at concentrations below 100 mM, but higher at 300 mM
Concentration at which the reduced GL response of T1R3 knock-out mice was evident ([3]; T1R3 knock-out vs B6 wild-type): 30 to 300 mM
GL responses of T1R3 knock-out mice compared with B6 wild-type mice [3]: Significant differences; also recorded: reduced

C=C[C@H]1CN2CC[C@H]1C[C@H]2[C@H](O)c1ccnc2ccc(OC)cc12.C=C[C@H]1CN2CC[C@H]1C[C@H]2[C@H](O)c1ccnc2ccc(OC)cc12.O=S(=O)(O)O [Quinine, quinine sulfate]
GL responses of T1R3 knock-out mice compared with B6 wild-type mice [3]: unchanged

OC[C@@H](O)[C@@H](O)[C@H](O)[C@@H](O)CO [sorbitol]
CT responses of T1R3 knock-out mice compared with B6 wild-type mice [2]: diminished; also recorded: moderately or markedly diminished

O=C(CO)[C@@H](O)[C@H](O)[C@H](O)CO [fructose]
CT responses of T1R3 knock-out mice compared with B6 wild-type mice [2]: diminished; also recorded: moderately or markedly diminished

[Cl-].[Na+] [NaCl]
GL responses of T1R3 knock-out mice compared with B6 wild-type mice [3]: unchanged

Source: patent US7803982B2, “T1R3 transgenic animals, cells and related methods” (The Mount Sinai School of Medicine of New York University, priority 2001, dated 2010)
